Results as given in article PMC9786284, “Synthesis and Antiproliferative Effect of Halogenated Coumarin Derivatives” (Molecules, 2022).

How the values were obtained:
[1] = tested on: TPC-1 cells; experiment: Intracellular ROS production (H2-DCF-DA probe); type: cell-based; conditions: 20 and 100 μM, 30 to 120 min
Method: (§1) It has been reported that coumarins and their derivatives are able to regulate the reactive oxygen species (ROS). For example, esculetin induces cytotoxicity in pancreatic cancer cells decreasing ROS and protein levels of the ROS-dependent transcription factor NF-κB [49]. On the other end, coumarins induce the generation and accumulation of ROS in cancer cells causing cell cycle arrest and apoptotic cell death. […] Conversely, 2h produces an antiproliferative response in TPC-1 cells by scavenging ROS. In an attempt of a better understanding of the results, such compounds were explored from an electrochemical point of view by means of cyclic voltammetry in anhydrous acetonitrile.
(§2) PTC-derived and control cells were seeded in 96-well plates (7.5 × 10^3/mL) to detect intracellular ROS production and grown for 24 h. Cells were then washed with PBS 1X solution and incubated for 30 min with 2′,7′-dichlorofluorescein diacetate probe (H2-DCF-DA) (Merck, Milan, Italy) (10 μM), as previously described. […] After 1 h of incubation, excess H2-DCF-DA was removed and replaced with PBS, and then ROS levels were measured by using a microplate reader (Infinite 200, Tecan, Salzburg, Austria) at a controlled temperature of 37 °C. The measurement was performed using an excitation of 490 nm and an emission of 520 nm. ROS production was evaluated for 2 h and monitored, taking readings at intervals of 5 min.

[2] = tested on: Nthy-ori-3-1 cells; experiment: Intracellular ROS production (H2-DCF-DA probe); type: cell-based; conditions: only with 100 μM
Method: as §1, §2

[3] = tested on: B-CPAP thyroid cancer cell line; experiment: MTT cell viability assay; type: cell-based; conditions: Homo sapiens, BCPAP; B-CPAP; MTT, 24 h; concentration required to inhibit cell proliferation by 50%; mean ± SD; read-out: CC50
Method: (§3) The cytotoxic effect of coumarins 2a–k was tested on several cancer and normal cell lines: lung cancer cell line (SK-MES-1), thyroid cancer cell lines (K-1; B-CPAP ant TPC-1), lung fibroblast (MRC-5) and thyroid normal cell line (Nthy-ori-3-1) by MTT (3-[4,5-dimethylthiazol-2-yl]-2,5 diphenyltetrazolium bromide) assay.
(§4) The papillary thyroid carcinoma (PTC)-derived cell lines (TPC-1 and B-CPAP) were kindly provided by Dr. Fusco (Medical School, University Federico II of Naples, Naples, Italy). K-1 PTC-derived cell line and non-tumorigenic thyroid Nthy-ori-3-1 cell line were purchased from Health Protection Agency Culture Collections. The PTC-derived cell lines were maintained in DMEM/F12 (Gibco-BRL. Life Technologies, Milan, Italy)] supplemented with 10% fetal bovine serum (Gibco-BRL) at 37 °C in humidified 5% CO2. SK-MES-1 and MRC-5 were purchased from American Type Culture Collection (ATCC) and were maintained in Mem-E medium, supplemented with 10% fetal bovine serum, 100 units/mL penicillin G, and 100 μg/mL streptomycin (Gibco-BRL) at 37 °C in humidified 5% CO2.
(§5) The effect of test compounds on the viability of cells was detected by MTT assay. The thyroid cells (7.5 × 10^3 cells/mL), SK-MES-1, and MRC-5 (8 × 10^4 cells/mL) were seeded into a 96-well plate and allowed to adhere for 16 h to culture plates before the addition of the compounds.
(§6) Then, compounds were added at different concentrations (0.8–100 μM), and cells were further incubated for 24 h. Cells with no treatment were used as a negative control. After incubation, cells were treated with MTT solution for 3 h at 37 °C. Then, the MTT solution was removed, and 150 µL of DMSO was added to the wells. The absorbances were measured at 570 nm using a TECAN microplate reader (Infinite 200, Tecan, Salzburg, Austria). Viability data were reported as % of control (untreated cells) for each cell line.

[4] = tested on: TPC-1 thyroid cancer cell line; experiment: MTT cell viability assay; type: cell-based; conditions: Homo sapiens, TPC1; TPC-1; MTT, 24 h; concentration required to inhibit cell proliferation by 50%; mean ± SD; read-out: CC50
Method: as §3, §4, §5, §6

[5] = tested on: TPC-1 cells; experiment: Intracellular reduced and oxidized glutathione (GSH/GSSG) by HPLC-ECD; type: cell-based; conditions: 20 µM, 24 h, untreated cells 100%
Method: (§7) Redox perturbation was further investigated by measuring intracellular antioxidant species. In Nthy-ori3-1 cells, coumarin 2k at 20 µM improved the GSH concentration measured as GSH/GSSG ratio (p < 0.001), leading to values close to 200% with respect to the untreated cells (100%), while coumarin 2h increased the level of GSH but with less evidence (about 40% more than the untreated control cells, p < 0.01) (Figure 4). […] The Keap1/Nrf2/ARE system is a mechanism that plays a key role in the pathogenesis and progression of several diseases. It is a central defensive mechanism against oxidative stress.
(§8) Reduced glutathione (GSH) and oxidized glutathione (GSSG) levels were determined with high-performance liquid chromatography coupled with an electrochemical detector (HPLC-ECD), as described in previous studies. In detail, Nthy-ori3-1 and TPC-1 cells were seeded in 6-well plates at the density of 1 × 10^5 cells/2 mL and incubated for 24 h. Cells were then treated with 2k and 2h (20 µM) for 24 h. After the incubation, cells were scraped and extracted with 150 µL of 10% meta-phosphoric acid and 150 µL of 0.05% trifluoroacetic acid (TFA) (Merck, Milan, Italy) solution. After centrifugation, 10 µL of supernatant was collected for protein determination, and the remaining part was injected into the HPLC system. GSH and GSSG amounts were measured using an HPLC (Agilent 1260 infinity, Agilent Technologies, Palo Alto, CA, USA) equipped with an electrochemical detector (DECADE II Antec, Leyden, The Netherlands) and an Agilent interface 35900E. A calibration curve was created using standards of GSH and GSSG (Merck, Milan, Italy), injected with different concentrations. Data were collected and expressed as a percentage of the control cells (100%) of the ratio between GSH and GSSG normalized using µg of total proteins.

[6] = tested on: Nthy-ori3-1 cells; experiment: as above; type: cell-based; conditions: 20 µM, 24 h
Method: as §7, §8

[7] = tested on: Nthy-ori-3-1 cells; experiment: Cell cycle analysis by flow cytometry (PI/RNase staining); type: cell-based; conditions: control cells (Nthy-ori-3-1); 20 µM, 24 h
[8] = Cyclic voltammetry in anhydrous acetonitrile; type: physicochemical; conditions: 100 mV s−1, Pt pseudo-reference (Fc+/0 at +0.45 V)
Method: as §1
The electrochemical properties of compounds 2h and 2k were investigated by cyclic voltammetry (CV) technique under an inert atmosphere. The measurements have been carried out at 100 mV s^−1 with a three-electrode cell using a platinum tip as a working electrode, a platinized titanium net as a counter electrode, and a platinum wire as a pseudo-reference electrode. The electrochemical measurements were performed at room temperature using an AUTOLAB PGSTAT302N (Metrohm, Herisau, Switzerland) potentiostat/galvanostat controlled with the NOVA software. All the solutions were prepared in anhydrous degassed acetonitrile with 0.1 M [n-Bu4N][PF6] as supporting electrolyte: in this condition, the Fc^+/0 redox couple is centered at +0.45 V.

Structure (SMILES) | ROS generation [1] | effect on ROS [2] | CC50 [3] [µM] | CC50 [4] [µM] | GSH/GSSG ratio, percentage of untreated cells [5] | increase in level of GSH over untreated control cells ([6]; more than the untreated control) | effect on the cell cycle [7] | oxidation peak potential [8] [V] | reduction feature potential [8] [V] | GSH/GSSG ratio, percentage of untreated cells ([6]; untreated cells 100%)
N#Cc1cc2cc(Br)cc(Br)c2oc1=O [2h, 6,8-dibromo-2-oxo-2H-chromene-3-carbonitrile] | decreased ROS generation | antioxidant | > 100 | 90 ± 3.5 | up to 500% | about 40% | No effect on the cell cycle | 0.6 | −1.02 | 
N#Cc1cc2cc(I)cc(I)c2oc1=O [2k, 6,8-diiodo-2-oxo-2H-chromene-3-carbonitrile] | significant increase in ROS generation | pro-oxidant | 46 ± 0.2 | 44 ± 5.5 | about 200% |  | No effect on the cell cycle | 0.75 | −0.95 | about 200%
